Reference: US12679825B2, “Crystalline and amorphous forms of a δ-opioid modulator” (Trevena, Inc., priority 2020, dated 2026)
In brackets after ≈: the same amount, converted by molar mass.

Assay: Approximate solubility by solvent addition technique
Type: physicochemical
Details: heating to 40° C. between solvent aliquots; for Approximate Solubility: 20° C.; for solubility: 20 °C, thermodynamic from solid
Experimental: The approximate solubility values of the amorphous free base in the selected solvent systems (see Table 1) was estimated by the solvent addition technique. The following procedure was used for the study: • Approximately 10 mg of material was weighed out into 18×2 mL push-cap vials. • Each solvent/solvent mixture was added to the appropriate vial in 5 volume aliquots (50 μL) until either 1 mL of solvent had been added or until the material dissolved. • In between additions, the sample was stirred at 40° C. • If 1000 μL of solvent was added without dissolution of the material, solubility was calculated to be below this point. • Once addition was complete, all experiments were temperature cycled between 40° C. and 5° C. (1 h hold; 0.1° C./min ramp/cool) for ca. 21 h. • Residual solids were isolated by centrifugation (0.22 μm nylon filter) or by decanting the mother liquor and analyzed by XRPD. • Anti-solvent addition (ASA) at 20° C. was carried out on solutions, followed by further temperature cycling for 21 h. • Any solids were then isolated by centrifugation (0.22 μm nylon filter) or by decanting the mother liquor and analyzed by XRPD. • Experiments which remained solutions had further AS added at 20° C. and were temperature cycled for a further 21 h. • Residual solids were isolated by centrifugation (0.22 μm nylon filter) or by decanting the mother liquor and analyzed by XRPD. • Selected isolated material was dried under vacuum at ambient temperature (ca. 20° C.) for ca. 19-21 h then re-analyzed by XRPD. • Selected dried solids were analyzed by PLM, TG/DSC, DSC, ^1H NMR spectroscopy and HPLC. • Further details can be found in Table 1.
The approximate solubility values of the amorphous free base in a range of different solvent systems was determined at ambient temperature, with heating to 40° C. between solvent aliquots. The solutions and slurries obtained were then used in initial small-scale crystallization trials (see Table 1 for details). […] The material formed gel in water. • Oiling was observed after ASA to experiments carried out in acetone, acetonitrile, DMSO, ethanol, MEK and 2-propanol. • Gum formed after ASA to experiments carried out in anisole, dichloromethane, ethyl acetate, 2-Me THF, toluene, ethanol:water 75:25 v/v and methanol:water 77:23 v/v. • After further temperature cycling, solids were obtained from experiments carried out using tBME, MEK and THF as the initial solvent system. […] (peak at 97° C.) during the first heat. A glass transition with a mid-point half-height of ca. 32° C. was observed during the first cool. […] The residual tBME could not be quantified, due to overlapping signals with the API. Residual heptane was observed, equal to 0.46% w/w, or 0.02 equivalents. • See Table 2 for further details.
Approximate solubility studies were carried out using the amorphous free base in a range of different solvent systems at 20° C., heating to 40° C. between additions of solvent aliquots. […] Poor solubility (≤10 mg/mL) was obtained in water, tBME and heptane, giving limited options for antisolvents. Once the solubility screen was complete, the residual slurries and solutions were temperature cycled, with anti-solvent addition then carried out where experiments remained solutions. […] Poorly crystalline material was isolated from 2-propanol:heptane 20:80 v/v %. Amorphous, or predominantly amorphous material was recovered from 7 experiments, using heptane, dichloromethane:heptane 20:80 v/v %, ethyl acetate:heptane 22:78 v/v %, 2-Me THF:heptane 38:62 v/v %, toluene:heptane 38:62 v/v %, ethanol:water 34:66 v/v % and methanol:water 48:52 v/v %. The remaining experiments yielded gel or oil.

COCCOc1cccc([C@@H]2CCN(CCn3cccc3)[C@H](C)[C@H]2COc2ccc3c(c2)C(=O)NC3)c1 [free base, (−)-6-{[(trans,trans)-4-[3-(2-methoxyethoxy)phenyl]-2-methyl-1-[2-(1H-pyrrol-1-yl)ethyl]piperidin-3-yl]methoxy}-2,3-dihydro-1H-isoindol-1-one]
Approximate Solubility (2-Methyl THF): >200 mg/mL | Approximate Solubility (2-Propanol): >200 mg/mL | solubility (2-methyl THF, organic solvent or mixture): > 200 mg/mL | solubility (2-propanol, organic solvent or mixture): > 200 mg/mL | Approximate Solubility (Acetone): >200 mg/mL | Approximate Solubility (Acetonitrile): >200 mg/mL | Approximate Solubility (Anisole): >200 mg/mL | solubility (DMSO, organic solvent or mixture): > 200 mg/mL | Approximate Solubility (DMSO): >200 mg/mL | Approximate Solubility (Dichloromethane): >200 mg/mL | Approximate Solubility (Ethanol): >200 mg/mL | Approximate Solubility (Ethyl acetate): >200 mg/mL | solubility (MEK (methyl ethyl ketone), organic solvent or mixture, MEK): > 200 mg/mL | Approximate Solubility (MEK): >200 mg/mL | Approximate Solubility (Methanol): >200 mg/mL | solubility (THF, organic solvent or mixture): > 200 mg/mL | Approximate Solubility (THF): >200 mg/mL | Approximate Solubility (Toluene): >200 mg/mL | solubility (acetone, organic solvent or mixture): > 200 mg/mL | solubility (acetonitrile, organic solvent or mixture): > 200 mg/mL | solubility (anisole, organic solvent or mixture): > 200 mg/mL | solubility (dichloromethane, organic solvent or mixture): > 200 mg/mL | solubility (ethanol, organic solvent or mixture): > 200 mg/mL | solubility (ethanol:water 75:25 v/v, aqueous with cosolvent or surfactant or cyclodextrin, Ethanol:Water 75:25 v/v): > 200 mg/mL | solubility (ethyl acetate, organic solvent or mixture): > 200 mg/mL | solubility (heptane, organic solvent or mixture): ≤ 10 mg/mL | solubility (methanol, organic solvent or mixture): > 200 mg/mL | solubility (methanol:water 77:23 v/v, aqueous with cosolvent or surfactant or cyclodextrin, Methanol:Water 77:23 v/v): 50 mg/mL (≈ 99.3 mM) | solubility (tBME, organic solvent or mixture): ≤ 10 mg/mL | solubility (toluene, organic solvent or mixture): > 200 mg/mL | solubility (water): ≤ 10 mg/mL
